According to patent US20240277829A1, “HIV-1 VACCINATION AND SAMT-247 MICROBICIDE TO PREVENT HIV-1 INFECTION” (priority 2021, published 2024):

Assays:
CD14^+ cells = experiment: Efferocytosis assay using SAMT-247 and gp120 pooled peptides; assay type: cell-based, macaque
Description: Efferocytosis assay. The frequency of efferocytotic CD14^+ cells was assessed by Efferocytosis Assay kit (#601770, Cayman Chemical company, Ann Arbor, MI, USA). CD14^+ cells were used as effector cells, whereas apoptotic neutrophils were used as target cells. The protocol was readapted in order to use CD14^+ monocyte cells rather than differentiated macrophages due to the low cell availability. CD14^+ cells were isolated from cryopreserved PBMCs (10×10^6 cells) collected following pre-study and 2 weeks post last immunization (week 14) or 5 weeks post last immunization (week 17) by using non-human primate CD14 microbeads (#130-091-097, Miltenyi Biotec Inc.) and following manufacturer instructions. At the end of the separation cells were counted and stained with CYTOTELL™ Blue provided by the kit and following manufacturer instructions. One unrelated macaque was used as source of neutrophils as target cells. Neutrophils were isolated as previously described (Khandpur, R., et al., Sci Transl Med 5, 178ra140 (2013)). Briefly, following isolation of PBMCs by Ficoll Plaque (GE Healthcare), the cellular pellet was added to an equal volume of 20% dextran in water, gently mixed, and incubated for 1 min. Approximately three volumes of PBS were added, mixed again and incubated in the dark for 50-60 minutes. At the end of incubation, the clear layer at the top of the tube containing neutrophils was collected. Cells were pelleted and treated with ACK lysing buffer (Quality Biological, Gaithersburg, MD, USA) for 5 min at 37° C., washed with R10 and counted. Neutrophils were stained with CFSE provided by the kit and following manufacturer instructions. The apoptosis of neutrophils was induced by treatment with Staurosporine Apoptosis inducer provided by the kit. Briefly, isolated cells were resuspended in R10 containing Staurosporine diluted 1:1000 and incubated at 37° C. for 3 hours. At the end of the incubation cells were washed twice with R10 and used for the efferocytosis assay. Subsequently, effector and apoptotic target cells were cultured alone (as controls) or cocultured at a ratio of one effector CD14^+ cell and three target apoptotic neutrophils. Cells were incubated at 37° C. for 12 hours. At the end of the coculture, cells were washed with PBS, fixed with 1% paraformaldehyde in PBS and acquired on a FACSYMPHONY™ A5 and examined using FACSDIVA™ software (BD Biosciences) by acquiring all stained cells. Data were further analyzed using FlowJo v10.1 (Treestar, Inc., Ashland, OR). The frequency of efferocytotic CD14^+ cells was determined as the frequency of double-positive cells for CYTOTELL™ Blue and CFSE on the CYTOTELL™ Blue positive monocytes.
Efferocytosis assay using SAMT-247 and gp120 pooled peptides. Efferocytosis was done as described above with the exception that SAMT-247 and/or gp120 pooled peptides were added to the co-culture for 12 hours. SAMT-247 induced Efferocytosis was measured by subtracting Efferocytosis with no SAMT-247 treated effector cells from Efferocytosis with SAMT-247 treated effector cells.

[1] = system: human PBMC effector cells; experiment: ADCC assay using SAMT-247; assay type: cell-based
Description: ADCC CEM-based assay. ADCC activity was assessed as previously described using EGFP-CEM-NKr-CCR5-SNAP cells that constitutively express GFP as targets (Rahman, M. A., et al, J Immunol 203, 2459-2471(2019)). Briefly, one million target cells were incubated with 50 μg of ΔV1 gp120 protein for 2 h at 37° C. After this coating, the target cells were washed and labeled with SNAP-SURFACE® ALEXA FLUOR® 647 (New England Biolabs, Connecticut, USA S9136S) per manufacturer recommendations for 30 min at RT. Plasma samples, heat inactivated at 56° C. for 30 min, were serially diluted (7 ten-fold dilutions starting at 1:10) and 100 μl were added to wells of a 96-well V-bottom plate (Millipore Sigma). 5000 target cells (50 μl) and 250,000 human PBMCs (50 μl) were added as effectors to each well to give an effector/target (E/T) ratio of 50:1. The plate was incubated at 37° C. for 2 h followed by two PBS washes. […] Specific killing was measured by loss of GFP from the SNAPAlexa647+ target cells. […] Normalized percent killing was calculated as: (killing in the presence of plasma-background)/(killing in the presence of KK17-background) X100. […]
ADCC assay using SAMT-247. […] SAMT-247 induced ADCC was measured by subtracting ADCC with no SAMT-247 treated effector cells from ADCC with SAMT-247 treated effector cells.

SIVmac251 = settings: cited from earlier work
[2] = CD14^+ cells collected pre and two weeks after last immunization
[3] = sorted monocytes from PBMCs stimulated with gp120 peptides ± SAMT-247

CC(=O)Sc1ccccc1C(=O)NCCC(N)=O [SAMT-247]
per-cell amount of engulfed apoptotic cells (MFI) (CD14^+ cells; [2]): augmented
percentage of CD14^+ cells engulfing apoptotic cells (CD14^+ cells; [2]): augmented
Function (CD14^+ cells; Monocytes unstimulated or +gp120 peptides): >Efferocytosis
per-cell amount of cells engulfed (MFI) (CD14^+ cells; [3]): reconstituted
percentage of CD14^+ cells engulfing apoptotic neutrophils (CD14^+ cells; [3]): reconstituted
Function ([1]; NKG2A^+, Blood and mucosa, PMA): >ADCC
ADCC activity mediated by the plasma of all vaccinated animals ([1]; effector human PBMCs pretreated with 100 nM SAMT-247 for 4 hours): significantly augments
effect in the SIVmac251 model (SIVmac251; SAMT-247 alone 3 hours prior to each challenge, animals mock immunized with empty Ad vector and alum (Helmold Hait et al. 2020)): protective effect
risk of SIVmac251 acquisition (SIVmac251; gel given four hours before challenge exposure (Helmold Hait et al. 2020)): unable to decrease
